Data reported in patent US9120815B2, “Solid state forms of macrocyclic kinase inhibitors” (Tragara Pharmaceuticals, Inc., priority 2010, dated 2015).

Assays:
Type in all cases: physicochemical
[1] = Stability study: rate of hydration of anhydrous polymorph in methocel/Tween 80 test medium, XRPD; conditions: no seeds
Experimental: Test medium was prepared by dissolving methocel (4 g) in water (196 mL) to afford a 2% (w/w) solution. After stirring for 12 hours to ensure a homogenous solution is obtained, Tween 80 (800 mg) and water (600 mL) was added and the mixture stirred for an additional 12 hours to homogenise.
Test medium (30 mL) was added and each sample was maturated at the indicated temperature and condition (−20° C., 4° C., room temperature with stirring and room temperature without stirring). […] The samples were monitored over time by XRPD to determine the rate of hydration of the anhydrous polymorph.
Test medium (5 mL) was added and each sample was maturated at the indicated temperature and condition (−20° C., 4° C., room temperature with stirring and room temperature without stirring). […] The samples were monitored over time by XRPD to determine the rate of hydration of the anhydrous polymorph.

[2] = Thermodynamic aqueous solubility
Experimental: Aqueous solubility was determined by suspending sufficient compound in water to give a maximum final concentration of 210 mg·ml^−1 of the parent free-form of the compound. The suspension was equilibrated at 25° C. for 24 hours then the pH was measured. The suspension was then filtered through a glass fibre C filter into a 96 well plate. The filtrate was then diluted by a factor of 101. Quantitation was by HPLC with reference to a standard solution of approximately 0.1 mg·ml^−1. in DMSO. Different volumes of the standard, diluted and undiluted sample solutions were injected. The solubility was calculated using the peak areas determined by integration of the peak found at the same retention time as the principal peak in the standard injection.
Analysis was performed on an Agilent HP1 100 series system equipped with a diode array detector and using ChemStation software vB.02.01-SR1.

[3] = Gravimetric Vapour Sorption (GVS) at 25° C.
Experimental: Sorption isotherms were obtained using a SMS DVS Intrinsic moisture sorption analyser, controlled by SMS Analysis Suite software. The sample temperature was maintained at 25° C. by the instrument controls. The humidity was controlled by mixing streams of dry and wet nitrogen, with a total flow rate of 200 ml.min^−1. The relative humidity was measured by a calibrated Rotronic probe (dynamic range of 1.0-100% RH), located near the sample. The weight change, (mass relaxation) of the sample as a function of % RH was constantly monitored by the microbalance (accuracy ±0.005 mg). Typically 5-20 mg of sample was placed in a tared mesh stainless steel basket under ambient conditions. The sample was loaded and unloaded at 40% RH and 25° C. (typical room conditions). A moisture sorption isotherm was performed as outlined below (2 scans giving 1 complete cycle). The standard isotherm was performed at 25° C. at 10% RH intervals over a 0.5-90% RH range. The sample was recovered after completion of the isotherm and re-analysed by XRPD.

[4] = Stability in humidity chamber 40° C./75% R.H. (XRPD, HPLC); conditions: 2 weeks
Experimental: After 2 days, the solids were isolated by filtration under vacuum at RT to be characterised by XRPD analysis. Each new crystalline solid phase detected was characterised by ^1H NMR and TGA-DSC analyses in order to determine if salt formation had occurred and whether the material was a solvate. At this stage, each salt identified was then analysed by HPLC to determine the chemical purity prior to being stored in the humidity chamber (40° C./75% R.H.) to assess its stability.

[5] = Solid state stability at ambient conditions
[6] = Polymorph screen: maturation in solvents, XRPD; conditions: for XPRD Characterisation after maturation: 3 days
Experimental: An initial polymorphism screen was performed for the fumarate and citrate salts using 10 common class II and III organic solvents (with and without addition of water), plus pure water. […] The samples were subjected to a series of heat/cool cycles (room temp […], 8 hour cycles). After 3 days, the samples were filtered and the solids were characterised by XRPD analysis.

[7] = listed as Fumiarate Pattern 2, fumarate

CN1CC=CCCOc2cccc(c2)C2=CC=NC(=Nc3cccc(c3)C1)N2.O=C(O)/C=C/C(=O)O [Fumarate Pattern 2, 14-methyl-20-oxa-5,7,14,27-tetraazatetracyclo-[19.3.1.12,6.18,12]heptacosa-1(25),2,4,6,8,10,12(26),16,21,23-decaene fumarate]
Time points where transformation was observed ([1]; 1 mg/mL, 4° C.): 120 h | Time points where transformation was observed ([1]; 1 mg/mL, 20-25° C. (under stirring)): 24 h | Time points where transformation was observed ([1]; 1 mg/mL, 20-25° C. (without stirring)): 48 h | Time points where transformation was observed ([1]; 1 mg/mL, −20° C.): 120 h | Time points where transformation was observed ([1]; 10 mg/mL, 4° C.): No | Time points where transformation was observed ([1]; 10 mg/mL, 20-25° C. (under stirring)): 48 h | Time points where transformation was observed ([1]; 10 mg/mL, 20-25° C. (without stirring)): 120 h | Time points where transformation was observed ([1]; 10 mg/mL, −20° C.): No | solubility at 24 h ([2]; 25 °C, thermodynamic from solid, water): 29 µg/mL | final pH ([2]; pH of the aqueous suspension after equilibration): 3.80 | aqueous solubility ([2]; water, 25° C., 24 hours): 29 µg/mL | changes in the XRPD pattern after the GVS experiment ([3]; fumarate): no transformation | changes in the XRPD pattern after the GVS experiment [3, 7]: between 0 and 90% relative humidity. No | XPRD stability after 40° C./75% RH 2 weeks ([4]; fumarate): not sensitive to humidity | XPRD stability after 40° C./75% RH 2 weeks ([4]; listed as Fumarate pattern 2, fumarate): no transformation | XPRD stability after 40° C./75% RH 2 weeks ([4]; listed as Fumareate pattern 2, fumarate): No change | XPRD stability after 40° C./75% RH 2 weeks [4, 7]: crystallinity, and no change was observed after | stability in the solid state [5]: stable | XPRD Characterisation after maturation ([6]; Acetone, w/ water (5% v/v)): Fumarate Pattern 2 | XPRD Characterisation after maturation ([6]; Acetone, w/o water): Fumarate Pattern 2 | XPRD Characterisation after maturation ([6]; Acetonitrile, w/ water (5% v/v)): Fumarate Pattern 2 | XPRD Characterisation after maturation ([6]; Acetonitrile, w/o water): Fumarate Pattern 2 | XPRD Characterisation after maturation ([6]; DCM, w/ water (5% v/v)): Fumarate Pattern 2 | XPRD Characterisation after maturation ([6]; DCM, w/o water, RT-50° C. cycles): Fumarate Pattern 2 | XPRD Characterisation after maturation ([6]; EtOH, w/ water (5% v/v)): Fumarate Pattern 2 | XPRD Characterisation after maturation ([6]; EtOH, w/o water): Fumarate Pattern 2 | XPRD Characterisation after maturation ([6]; Ethyl acetate, w/ water (5% v/v)): Fumarate Pattern 1 | XPRD Characterisation after maturation ([6]; Ethyl acetate, w/o water): Fumarate Pattern 2 | XPRD Characterisation after maturation ([6]; IPA, w/ water (5% v/v)): Fumarate Pattern 2 | XPRD Characterisation after maturation ([6]; IPA, w/o water): Fumarate Pattern 2 | XPRD Characterisation after maturation ([6]; TBME, w/ water (5% v/v)): Fumarate Pattern 1 | XPRD Characterisation after maturation ([6]; TBME, w/o water): Fumarate Pattern 2 | XPRD Characterisation after maturation ([6]; THF, w/ water (5% v/v)): Fumarate Pattern 2 | XPRD Characterisation after maturation ([6]; THF, w/o water): Fumarate Pattern 2 | XPRD Characterisation after maturation ([6]; Toluene, w/ water (5% v/v)): Fumarate Pattern 1 | XPRD Characterisation after maturation ([6]; Toluene, w/o water): Fumarate Pattern 2 | transformation after 3 days of maturation in dried solvents ([6]; dried solvents): No transformation | XPRD Characterisation after maturation ([6]; nitromethane, w/ water (5% v/v)): Fumarate Pattern 2 | XPRD Characterisation after maturation ([6]; nitromethane, w/o water): Fumarate Pattern 2 | XPRD Characterisation after maturation ([6]; pure water): Fumarate Pattern 1

CN1CC=CCCOc2cccc(c2)C2=CC=NC(=Nc3cccc(c3)C1)N2.O=S(=O)(O)c1ccccc1 [Besylate Pattern 1, 14-methyl-20-oxa-5,7,14,27-tetraazatetracyclo-[19.3.1.12,6.18,12]heptacosa-1(25),2,4,6,8,10,12(26),16,21,23-decaene besylate]
XPRD stability after 40° C./75% RH 2 weeks ([4]; besylate): stable | XPRD stability after 40° C./75% RH 2 weeks ([4]; listed as Besylate pattern 1, besylate): No change

CN1CC=CCCOc2cccc(c2)C2=CC=NC(=Nc3cccc(c3)C1)N2.O=C(O)/C=C/C(=O)O [Fumarate Pattern 1, 14-methyl-20-oxa-5,7,14,27-tetraazatetracyclo-[19.3.1.12,6.18,12]heptacosa-1(25),2,4,6,8,10,12(26),16,21,23-decaene fumarate]
XPRD stability after 40° C./75% RH 2 weeks ([4]; listed as Fumarate pattern 1, fumarate): No change
